Some results are limits rather than exact numbers.

The values that follow come from patent EP4620956A1, “PARP1 INHIBITORS” (Zhejiang Yangli Pharmaceutical Technology Co., Ltd., priority 2022, dated 2024).

Assay [1] has as its system cleaved caspase-3. The assay can be described thus: Cleaved caspase-3 in MDA-MB-436 xenograft tumour tissues (immunoblotting). The format is in vivo, mice. To be noted: 10 days of treatment, 0.25 hours and 24 hours after the last administration, FIG. 5 and 6. The protocol: The pro-apoptotic effect of the compounds was further verified in vivo. The changes of cleaved caspase-3 in subcutaneous xenograft tumour tissues of MDA-MB-436 mice were detected by immunoblotting. After 10 days of treatment with different compounds, the animals were euthanized 0.25 hours and 24 hours after the last administration, and the tumour tissues were obtained for analysis. The rapidly frozen tumour tissues were placed on dry ice, 350 µL of complete cell lysis buffer (containing 1% protease inhibitors and phosphatase inhibitors) was added, the tissues were disrupted using Tissue grinder for 5 minutes, and the tissue lysate was placed on ice for 30 minutes. Centrifugation was performed at 12,000 rpm and 4°C for 10 minutes, the supernatant was placed in a new 1.5 mL centrifuge tube, and protein quantification was carried out using a BCA quantification kit. According to the quantitative results, the sample protein concentration was uniformly adjusted to 2 µg/µL, LDS loading buffer (4X) and sample reducing agent (10X) were added, and the samples were heated at a constant temperature of 100°C for 10 minutes. For Western blotting, 10 µL of sample was loaded into each well of an SDS-PAGE gel, and electrophoresis was performed at 80 V for 30 minutes, followed by 120 V for 90 minutes. […] The membrane was then cut according to the molecular weights of the proteins to be detected. […]

Assay [2] relates to A549 PARP1-KO cell lines. Briefly: Cellular PARylation inhibition, high-content imaging, PARP1-KO. The format is cell-based.
The target of assay [3] is T1, PARP2 (Homo sapiens, UniProt Q9UGN5).
T1 construct: purchased BPS 80502
T1 sequence (Q9UGN5 whole entry): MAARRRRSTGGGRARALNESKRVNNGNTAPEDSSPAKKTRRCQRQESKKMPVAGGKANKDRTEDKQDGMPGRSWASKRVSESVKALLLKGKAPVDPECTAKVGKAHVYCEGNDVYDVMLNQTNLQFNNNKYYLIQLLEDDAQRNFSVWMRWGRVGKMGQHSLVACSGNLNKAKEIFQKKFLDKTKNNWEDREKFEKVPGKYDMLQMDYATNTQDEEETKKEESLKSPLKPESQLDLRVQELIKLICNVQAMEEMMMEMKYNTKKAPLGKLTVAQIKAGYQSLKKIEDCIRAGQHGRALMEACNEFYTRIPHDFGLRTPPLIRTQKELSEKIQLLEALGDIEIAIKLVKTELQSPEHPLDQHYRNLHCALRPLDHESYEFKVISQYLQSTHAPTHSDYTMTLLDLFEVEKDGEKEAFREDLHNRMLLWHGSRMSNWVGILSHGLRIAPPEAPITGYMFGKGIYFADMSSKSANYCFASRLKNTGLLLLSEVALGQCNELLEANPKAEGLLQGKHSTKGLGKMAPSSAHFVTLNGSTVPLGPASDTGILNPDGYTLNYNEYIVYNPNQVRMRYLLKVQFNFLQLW
The assay can be described thus: Inhibition of PARP2 enzyme activity (chemiluminescence). Format: biochemical.

In assay [4] the target is T2, PARP5a (Homo sapiens, UniProt O95271).
T2 construct: purchased BPS 80504
T2 sequence (O95271 1001-1327): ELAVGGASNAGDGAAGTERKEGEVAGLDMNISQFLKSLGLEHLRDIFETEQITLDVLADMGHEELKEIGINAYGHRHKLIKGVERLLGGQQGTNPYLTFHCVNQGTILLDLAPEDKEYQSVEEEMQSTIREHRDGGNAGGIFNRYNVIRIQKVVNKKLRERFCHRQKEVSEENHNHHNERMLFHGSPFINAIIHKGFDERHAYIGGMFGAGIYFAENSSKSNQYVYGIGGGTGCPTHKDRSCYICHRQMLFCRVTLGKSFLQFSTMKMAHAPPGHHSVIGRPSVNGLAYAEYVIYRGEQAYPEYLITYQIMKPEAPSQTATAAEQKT
The assay can be described thus: Inhibition of PARP5a enzyme activity (chemiluminescence). Format: biochemical.

Assay [5] concerns the target T3, PARP6 (Homo sapiens, UniProt Q2NL67).
T3 construct: purchased BPS 80506
Briefly: Inhibition of PARP6 enzyme activity (chemiluminescence). Format: biochemical.

Assay [6] has as its target T4, PARP1 (Homo sapiens, UniProt P09874).
T4 construct: purchased BPS 80501
The assay can be described thus: Inhibition of PARP1 enzyme activity (chemiluminescence). The format is biochemical.

Assay [7] has as its system MDA-MB-231. The assay can be described thus: Anti-proliferative activity (CellTiter-Glo, 7 days), MDA-MB-231. Format: cell-based, human. (In ATP-based viability assays light output follows the ATP content of the culture.)
In assay [8] the target is T5, PARP3 (Homo sapiens, UniProt Q9Y6F1).
T5 construct: purchased BPS 80503
T5 sequence (Q9Y6F1 1-533): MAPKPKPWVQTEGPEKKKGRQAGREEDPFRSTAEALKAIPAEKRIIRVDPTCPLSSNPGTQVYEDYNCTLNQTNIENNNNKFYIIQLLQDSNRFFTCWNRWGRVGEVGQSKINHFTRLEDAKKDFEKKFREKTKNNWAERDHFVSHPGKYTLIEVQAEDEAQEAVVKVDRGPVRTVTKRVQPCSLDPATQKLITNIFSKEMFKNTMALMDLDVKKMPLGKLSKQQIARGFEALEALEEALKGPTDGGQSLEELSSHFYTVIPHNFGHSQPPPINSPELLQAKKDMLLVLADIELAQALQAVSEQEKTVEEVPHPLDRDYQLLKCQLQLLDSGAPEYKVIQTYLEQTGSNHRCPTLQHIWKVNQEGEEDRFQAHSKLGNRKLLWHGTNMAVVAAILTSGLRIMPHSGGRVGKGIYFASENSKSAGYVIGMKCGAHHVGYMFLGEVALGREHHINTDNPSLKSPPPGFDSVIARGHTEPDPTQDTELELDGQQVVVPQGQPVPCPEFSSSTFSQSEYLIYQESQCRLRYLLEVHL
Briefly: Inhibition of PARP3 enzyme activity (chemiluminescence). Format: biochemical.

[9] abbreviates: ratio relative to the PARP1 enzyme activity.

T3 sequence (Q2NL67 whole entry): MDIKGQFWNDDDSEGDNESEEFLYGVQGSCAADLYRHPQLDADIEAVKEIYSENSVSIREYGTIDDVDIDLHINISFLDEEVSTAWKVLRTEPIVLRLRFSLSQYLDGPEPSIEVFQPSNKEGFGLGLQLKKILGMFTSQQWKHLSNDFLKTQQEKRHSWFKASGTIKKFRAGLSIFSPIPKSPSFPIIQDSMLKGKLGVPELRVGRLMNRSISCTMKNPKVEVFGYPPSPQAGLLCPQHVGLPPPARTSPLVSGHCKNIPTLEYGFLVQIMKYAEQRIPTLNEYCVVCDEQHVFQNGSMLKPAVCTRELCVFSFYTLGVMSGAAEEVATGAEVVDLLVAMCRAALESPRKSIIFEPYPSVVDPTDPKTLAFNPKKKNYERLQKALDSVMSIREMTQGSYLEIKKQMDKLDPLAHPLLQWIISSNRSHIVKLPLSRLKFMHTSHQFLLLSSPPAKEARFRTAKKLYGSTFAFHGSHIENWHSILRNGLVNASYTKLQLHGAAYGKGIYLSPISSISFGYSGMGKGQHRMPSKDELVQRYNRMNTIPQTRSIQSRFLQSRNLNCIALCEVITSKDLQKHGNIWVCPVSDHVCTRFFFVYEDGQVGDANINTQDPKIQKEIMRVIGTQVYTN
T4 sequence (P09874 whole entry): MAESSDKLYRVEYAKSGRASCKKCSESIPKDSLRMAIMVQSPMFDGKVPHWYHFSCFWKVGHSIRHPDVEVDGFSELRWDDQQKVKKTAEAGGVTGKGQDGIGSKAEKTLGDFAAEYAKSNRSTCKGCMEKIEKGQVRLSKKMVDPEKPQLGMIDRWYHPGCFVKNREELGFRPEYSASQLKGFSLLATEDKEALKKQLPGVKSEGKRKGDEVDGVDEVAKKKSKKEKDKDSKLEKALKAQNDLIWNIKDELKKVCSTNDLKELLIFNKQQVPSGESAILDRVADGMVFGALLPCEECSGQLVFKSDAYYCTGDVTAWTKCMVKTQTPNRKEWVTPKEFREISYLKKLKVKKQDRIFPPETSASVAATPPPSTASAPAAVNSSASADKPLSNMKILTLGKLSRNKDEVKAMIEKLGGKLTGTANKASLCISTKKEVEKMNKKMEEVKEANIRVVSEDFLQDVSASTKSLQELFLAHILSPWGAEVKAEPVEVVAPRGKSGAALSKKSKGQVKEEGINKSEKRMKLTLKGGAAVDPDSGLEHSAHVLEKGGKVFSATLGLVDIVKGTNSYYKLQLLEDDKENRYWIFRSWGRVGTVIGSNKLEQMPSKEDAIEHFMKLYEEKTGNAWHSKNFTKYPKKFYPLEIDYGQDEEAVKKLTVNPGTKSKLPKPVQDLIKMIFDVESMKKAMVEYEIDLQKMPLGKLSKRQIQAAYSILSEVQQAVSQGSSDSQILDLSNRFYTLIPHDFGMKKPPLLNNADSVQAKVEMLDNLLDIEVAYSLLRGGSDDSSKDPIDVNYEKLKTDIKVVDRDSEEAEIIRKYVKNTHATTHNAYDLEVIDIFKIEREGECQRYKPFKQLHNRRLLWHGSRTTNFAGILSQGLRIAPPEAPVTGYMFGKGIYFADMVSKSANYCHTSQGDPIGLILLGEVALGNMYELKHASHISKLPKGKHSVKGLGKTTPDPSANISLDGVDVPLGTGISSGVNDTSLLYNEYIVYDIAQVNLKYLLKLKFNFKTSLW

Usually IC50 stands for the concentration at which inhibition is half-maximal. Consider `[2H]C([2H])([2H])NC(=O)c1ccc(N2CCN(Cc3cnc4c(N)c(CC)c(=O)[nH]c4c3)CC2)c(F)n1` [Example 4, 5-(4-((8-Amino-7-ethyl-6-oxo-5,6-dihydro-1,5-naphthyridin-3-yl)methyl)piperazin-1-yl)-6-fluoro-N-(methyl-d3)picolinamide], for which the “cleaved caspase-3 in tumour tissues” value in assay [1] is “induced an increase in cleaved caspase-3”. Further, the “inhibition on the enzyme activity at the highest concentration” value in assay [2] (A549 PARP1-KO cell lines, 40 µM) is “no detectable inhibition”. Also, the IC50 in assay [2] (Homo sapiens, A549, PARylation at the cellular level) is > 40 µM; in assay [3], 0.0186 µM; in assay [4] (enzyme activity), 4.06 µM; in assay [5] (enzyme activity) it was > 10 µM; in assay [6], 0.00048 µM; in assay [7] (Homo sapiens, MDA-MB-231, 168 h, BRCA1-normal, 7 days, read-out: MDA-MB-231 IC50), > 10 µM. Also, half-maximal inhibition in assay [8] (enzyme activity) (IC50) was put at 7.65 µM. For the same compound, in assay [4] (setting [9]), the “PARP5a multiple vs PARP1” value is 8,467. The “PARP6 multiple vs PARP1” value in assay [5] (setting [9]) was “∞”. This compound came in with a PARP1/2 selectivity fold in assay [6] (PARP2 vs PARP1) of 39 fold. In addition, in assay [7] (BRCA1-normal MDA-MB-231 cell line, 10 µM), the “inhibition on cell proliferation at the highest concentration” value is reported as “no detectable inhibition”. For the same compound, the “PARP3 multiple vs PARP1” value in assay [8] (setting [9]) was 15,929.
